How the values were obtained:
HT-22 cells [1] = experiment: HT-22 serum deprivation toxicity; type: cell-based, mouse; settings: for protection against serum deprivation: 24 h in 10% FBS with compound, then about 12 h serum free medium; for concentration enhancing serum deprivation-induced toxicity: HT-22
Method: The effects of pretreatment of HT-22 cells with PPARγ agonists on serum deprivation toxicity were also studied. We examined whether 15d-PGJ2 or troglitazone have neuroprotective activity against serum deprivation toxicity. HT-22 cells were incubated for 24 hours in 10% FBS medium containing either 15d-PGJ2 or troglitazone. Then, cells were exposed for about 12 hours to a serum free medium with both of the compounds present. […] In addition, 15d-PGJ2 and troglitazone enhanced the serum deprivation-induced toxicity at or above 10 μM and 20 μM, respectively.
(§1) The WY-14643, Ciglitazone, Troglitazone, 9-cis retinoic acid, and 15d-PGJ2 compounds were purchased from Biomol (Plymouth Meeting, Pa.). L-165041 and L-783483 were kindly provided by Merck Laboratories. The cell lines used were HT-22, an immortalized mouse hippocampal cell line, and SK—N—SH, a human neuroblastoma cell line. The HT-22 cells were obtained from David Schubert (Salk Institute, San Diego, Calif.). The HT-22 line was originally selected from HT-4 cells based on glutamate sensitivity. HT-4 cells were immortalized from primary hippocampal neurons using a temperature-sensitive SV-40 T antigen (Morimoto and Koshland, 1990). SK—N—SH were obtained from ATCC (Manassas, Va.). HT-22 and SK—N—SH cells were grown to confluence in DMEM and RPMI-1640 media, respectively, and supplemented with 10% charcoal/dextran-treated fetal bovine serum (FBS), and 5 mg/ml gentamycin at 37° C. under 95% air, 5% CO2. HT-22 cells were plated at a density of 50,000 cells/ml (5,000 cells/well), and SK—N—SH were plated at a density of 120,000 to 150,000 cells/ml (12,000 to 15,000 cells/well) in 96-well plates. In most studies, wells were pre-treated with PPAR ligands over a wide dose range at various times prior to being subjected to either glutamate, hydrogen peroxide (H2O2), or serum deprivation insults. In some studies, the insults were applied prior to the addition of the PPAR ligand.
The cell viability assays were conducted about 14 to 24 hours post-insult time, viability of cells was determined using 2.5 μM Calcein AM assay in phosphate-buffered saline (PBS). After 25 minutes of incubation, live cells were distinguished by the presence of intracellular esterase activity, which cleaves the calcein AM dye, producing a bright green fluorescence. Viability was measured in Relative Fluorescent Units (“RFU”), and expressed as percentage of vehicle-treated control values. The calcein assay was designed to produce results that accurately reflect viable cell numbers. At cell concentrations below 10,000 cells per well (96-well plate) a linear relationship between RFU and cell number is achieved (r^2=0.9997, data not shown).

HT-22 cells [2] = experiment: HT-22 cell viability during glutamate exposure (calcein AM assay); type: cell-based; settings: for neuroprotection after withdrawal of compound-containing medium: 24 h preincubation, medium washed away, then glutamate (15 mM); for concentration at which toxicity was observed: HT-22, glutamate experiments; for neuroprotection against glutamate insult (cell viability): HT-22, 24 h preincubation before glutamate
Excerpt: Although not wanting to be bound by theory, the toxicity of glutamate in HT-22 (32) and C6 glioma (33) cell lines is mediated through oxidative stress. HT-22 cells lack ionotropic N-methyl-D-aspartate (“NMDA”) glutamate receptors, and the glutamate-induced cell death appears to occur via a slow onset oxidative stress (32,34,35). Glutamate blocks cystine uptake by inhibiting the glutamate/cystine antiporter in both HT-22 (32) and C6 glioma (33) cell lines. Since cysteine is required for glutathione (“GSH”) synthesis, the intracellular concentration of GSH decreases as a consequence. BSO depletes intracellular glutathione by inhibiting γ-glutamylcysteine synthetase, the rate-limiting enzyme in glutathione synthesis (33). […] Troglitazone further protected HT-22 (FIG. 14) and RGC-5 (FIG. 15) against BSO. The cell viability was taken at time points around about 14 to 24 hours post-insult time. In some of the experiments, the viability of cells was determined using 2.5 μM calcein AM assay in phosphate-buffered saline (PBS 1×). After 25 minutes of incubation, live cells were distinguished by the presence of intracellular esterase activity, which cleaves the calcein AM dye, producing a bright green fluorescence, as shown in FIG. 22. Viability was measured in Relative Fluorescent Units (“RFU”), and expressed as percentage of vehicle-treated control values.
15d-PGJ2 and two TZD's (e.g. troglitazone and ciglitazone) were tested for their ability to protect HT-22 cells against glutamate toxicity. […] HT-22 cells were treated with 15-dPGJ2 twenty-four hours prior to a glutamate insult (15 mM). […] The data of FIG. 24 was quantified using the calcein AM assay (see FIG. 22). Results are expressed in % survival of the control (non-glutamate-treated) cultures. DMSO received the vehicle only for 15d-PGJ2. Shown are mean±SEM for 6. The asterisk (“*”) indicates p<0.05 vs. respective control.
In order to conduct these experiments, the following compounds: PGA1; PGA2; PGJ2; Δ^12PGJ2; and 15d-PGJ2 were ordered from Biomol, Plymouth Meeting, Pa. HT-22, an immortalized mouse hippocampal cell line, C6 rat glioma, RGC-5 retinal ganglion cells were used. Cells were grown to confluence in DMEM media, and supplemented with 10% charcoal/dextran-treated fetal bovine serum (“FBS”), and […] gentamycin at 37° C. under 95% air, 5% CO2. HT-22, C6, and RGC-5 cells were plated at a density of 50,000, 35,000, and 10,000 cells/ml, respectively, in 96-well plates. Wells were pre-treated with cyclopentenone PGs at various times prior to being subjected to glutamate, hydrogen peroxide (H2O2), or BSO insults.
as §1, with “ligand. […]” for “ligand.”

Cc1c(C)c2c(c(C)c1O)CCC(C)(COc1ccc(CC3SC(=O)NC3=O)cc1)O2 (stereo not shown) [troglitazone]
protection against serum deprivation (HT-22 cells [1]): failed to protect
concentration enhancing serum deprivation-induced toxicity (HT-22 cells [1]): ≥ 20 µM
neuroprotection after withdrawal of compound-containing medium (HT-22 cells [2]): loss of neuroprotection
concentration at which toxicity was observed (HT-22 cells [2]): ≥ 20 µM
neuroprotection against glutamate insult (cell viability) (HT-22 cells [2]): dose-dependent protection
protection versus time of administration prior to glutamate insult (HT-22 cells [2]; administered 0 to 10 hours prior to insult): equally protective
time post glutamate insult up to which neuroprotective effects remained unaltered (HT-22 cells [2]; post-treatment 0 to 10 hours after glutamate): up to 6 hours
protection at 8 and 10 hours post glutamate insult (HT-22 cells [2]; post-treatment, extent of protection decreased): still significantly protected

CCCCC/C=C/C=C1/C(=O)C=C[C@@H]1C/C=C\CCCC(=O)O [15d-PGJ2, 15-deoxy-Δ^12,14-PGJ2]
protection against serum deprivation (HT-22 cells [1]): failed to protect
concentration enhancing serum deprivation-induced toxicity (HT-22 cells [1]): ≥ 10 µM
neuroprotection after withdrawal of compound-containing medium (HT-22 cells [2]): protected in a dose dependent manner
concentration at which toxicity was observed (HT-22 cells [2]): ≥ 10 µM
neuroprotection against glutamate insult (cell viability) (HT-22 cells [2]): dose-dependent protection
neuroprotective effect of prostaglandins against glutamate toxicity (HT-22 cells [2]; added 24 h before glutamate (15 mM), viability 15 h later): potent neuroprotective effect
neuroprotection when added with or after glutamate (HT-22 cells [2]; added at same time as glutamate or up to ten hours thereafter): failed to display any neuroprotective effects
exposure time required to achieve significant neuroprotection (HT-22 cells [2]; preincubation before glutamate (15 mM), 5 μM): four to six
